Test results taken from PMC10202811 (Nature Medicine, 2023).
Where “and” joins values, the source holds several entries; their conditions need not be identical. Equal entries are not always repeated.

Key:
[1] = adults with NSCLC; cited from earlier work
[2] = system: ALK-driven refractory or relapsed neuroblastoma; assay: Functional imaging response: MIBG Curie score / FDG-PET avidity; assay type: in vivo, human; parameters: key to Symbol to indicate Soft tissue became MIBG non-avid: *: Symbol to indicate Soft tissue became MIBG non-avid; settings: for complete resolution of MIBG avidity (CR) in bone and/or soft tissue: patients with BOR of SD/MR/PR
Text: Patients underwent disease staging at baseline, after courses 2 and 4 and then every four courses thereafter. The primary endpoint for response analysis is the BOR, defined as the best response observed before progression or start of another therapy. […] Response was graded according to the NANT response criteria version 2.0 (ref. [26]), modified from the International Neuroblastoma Response Criteria (INRC)[48]. NANT response criteria use three components for assessment of overall response: soft tissue response assessed by anatomical imaging and avidity on MIBG or FDG-PET; bone response assessed by uptake in bone by MIBG or bone involvement on FDG-PET; and bone marrow response assessed by morphology on bilateral aspirates and biopsies. Each response component (soft tissue, bone and bone marrow) are graded as CR, PR, SD and PD. Overall response grading is defined as: CR, if a response of CR in all components that are involved at baseline; PR, if a response of PR or better in all involved components; MR, if a response of PR or better but with at least one involved component as SD and no PD in all involved components; SD, if a response of SD in all involved components; and PD, if a response of PD in at least one involved component. The overall response definitions are identical to overall responses (CR, PR, SD and PD) as defined by the INRC. Response assessment is initially performed by sites and reviewed against source documents by NANT operations. Additional blinded central review of all radiological or pathological data was conducted for patients with overall PR or better and, in addition, radiologic pathological data of all involved sites for patients with MR to assign the final BOR on this study. Response by MIBG was determined using the Curie criteria. RR was determined as the proportion of patients with BOR of CR and PR in each cohort. Based on an international consensus by the National Cancer Institute Clinical Trials Planning Committee to refine tumor site eligibility criteria and evaluation of disease response for early-phase clinical trials in children with high-risk recurrent, refractory and progressive neuroblastoma, we also performed an ad hoc analysis to determine a modified RR that includes the proportion of patients with BOR of CR, PR and MR.

**Q.** Which “adult RP2D” value [1] does the source give for C[C@H]1Oc2cc(cnc2N)-c2c(nn(C)c2C#N)CN(C)C(=O)c2ccc(F)cc21 [Lorlatinib, (10R)-7-amino-12-fluoro-2,10,16-trimethyl-15-oxo-10,15,16,17-tetrahydro-2H-8,4-(metheno)pyrazolo[4,3-h][2,5,11]-benzoxadiazacyclotetradecine-3-carbonitrile] here?
**A.** The value was 100 mg per day.

**Q.** What about the “responders achieving MIBG complete responses” value ([2]; 13 of 27 responders, all cohorts) of the same compound?
**A.** The value was 48%.

**Q.** What about the “MIBG Curie Score % change from baseline” value ([2]; Cohort A1, individual patient) of the same compound?
**A.** The value was -87% and -94% and -100% and 600% and 50% and 40% and 33% and -10% and -18% and -70%.

**Q.** What about the “Symbol to indicate Soft tissue became MIBG non-avid” value ([2]; Cohort A1, individual patient) of the same compound?
**A.** Its value is “*”.

**Q.** What about the “MIBG Curie Score % change from baseline” value ([2]; Cohort A2, individual patient) of the same compound?
**A.** The value was -4.76% and -25% and -44% and -56% and -67% and -95% and -100%.

**Q.** And the “Symbol to indicate Soft tissue became MIBG non-avid” value ([2]; Cohort A2, individual patient)?
**A.** The value was “*”.

**Q.** And the “MIBG Curie Score % change from baseline” value ([2]; Cohort B2, individual patient)?
**A.** Its value is 100% and 56% and 1% and -33% and -73% and -75% and -100%.

**Q.** What about the “Symbol to indicate Soft tissue became MIBG non-avid” value ([2]; Cohort B2, individual patient) of the same compound?
**A.** Its value is “*”.

**Q.** And the “Curie Score Percent Change” value ([2]; Patient ID 2)?
**A.** Its value is -100.

**Q.** And the “Minimum Curie” value ([2]; Patient ID 2, Enrollment Curie 5)?
**A.** The value was 0.

**Q.** What about the “Curie Score Percent Change” value ([2]; Patient ID 3) of the same compound?
**A.** Its value is -94.44.

**Q.** And the “Minimum Curie” value ([2]; Patient ID 3, Enrollment Curie 18)?
**A.** The value was 1.

**Q.** What about the “Curie Score Percent Change” value ([2]; Patient ID 9) of the same compound?
**A.** Its value is -10.

**Q.** What about the “Minimum Curie” value ([2]; Patient ID 9, Enrollment Curie 10) of the same compound?
**A.** Its value is 9.

**Q.** What about the “Curie Score Percent Change” value ([2]; Patient ID 10) of the same compound?
**A.** Its value is 50.

**Q.** What about the “Minimum Curie” value ([2]; Patient ID 10, Enrollment Curie 4) of the same compound?
**A.** The value was 6.

**Q.** What about the “Curie Score Percent Change” value ([2]; Patient ID 11) of the same compound?
**A.** Its value is -100.

**Q.** What about the “Minimum Curie” value ([2]; Patient ID 11, Enrollment Curie 1) of the same compound?
**A.** The value was 0.

**Q.** What about the “Curie Score Percent Change” value ([2]; Patient ID 12) of the same compound?
**A.** The value was 33.33.

**Q.** What about the “Minimum Curie” value ([2]; Patient ID 12, Enrollment Curie 6) of the same compound?
**A.** The value was 8.

**Q.** And the “Curie Score Percent Change” value ([2]; Patient ID 17)?
**A.** The value was -86.66.

**Q.** What about the “Minimum Curie” value ([2]; Patient ID 17, Enrollment Curie 15) of the same compound?
**A.** The value was 2.

**Q.** What about the “Curie Score Percent Change” value ([2]; Patient ID 21) of the same compound?
**A.** Its value is -100.

**Q.** What about the “Minimum Curie” value ([2]; Patient ID 21, Enrollment Curie 3) of the same compound?
**A.** The value was 0.

**Q.** And the “Curie Score Percent Change” value ([2]; Patient ID 25)?
**A.** Its value is -100.

**Q.** What about the “Minimum Curie” value ([2]; Patient ID 25, Enrollment Curie 2) of the same compound?
**A.** Its value is 0.

**Q.** And the “Curie Score Percent Change” value ([2]; Patient ID 26)?
**A.** Its value is -18.18.

**Q.** What about the “Minimum Curie” value ([2]; Patient ID 26, Enrollment Curie 11) of the same compound?
**A.** Its value is 9.

**Q.** What about the “Curie Score Percent Change” value ([2]; Patient ID 30) of the same compound?
**A.** The value was 40.

**Q.** And the “Minimum Curie” value ([2]; Patient ID 30, Enrollment Curie 5)?
**A.** Its value is 7.

**Q.** And the “Curie Score Percent Change” value ([2]; Patient ID 31)?
**A.** The value was -100.

**Q.** What about the “Minimum Curie” value ([2]; Patient ID 31, Enrollment Curie 3) of the same compound?
**A.** The value was 0.

**Q.** And the “Curie Score Percent Change” value ([2]; Patient ID 32)?
**A.** The value was 600.

**Q.** And the “Minimum Curie” value ([2]; Patient ID 32, Enrollment Curie 2)?
**A.** The value was 14.

**Q.** What about the “Curie Score Percent Change” value ([2]; Patient ID 38) of the same compound?
**A.** The value was -100.

**Q.** And the “Minimum Curie” value ([2]; Patient ID 38, Enrollment Curie 3)?
**A.** Its value is 0.

**Q.** What about the “Curie Score Percent Change” value ([2]; Patient ID 40) of the same compound?
**A.** Its value is -70.

**Q.** And the “Minimum Curie” value ([2]; Patient ID 40, Enrollment Curie 10)?
**A.** The value was 3.

**Q.** What about the “complete resolution of MIBG avidity (CR) in bone and/or soft tissue” value (“complete resolution of MIBG avidity (CR)” for short) ([2]; A1, five of eight) of the same compound?
**A.** The value was 63%.

**Q.** And the “complete resolution of MIBG avidity (CR)” value ([2]; A2, three of ten)?
**A.** Its value is 30%.

**Q.** And the “complete resolution of MIBG avidity (CR)” value ([2]; B2, one of four)?
**A.** The value was 25%.

**Q.** What about the “complete resolution of metabolic activity in soft tissue lesions by MIBG/FDG-PET” value ([2]; ten of 22 patients with avid soft tissue lesions and BOR of SD/MR/PR) of the same compound?
**A.** Its value is 45%.
